From article PMC11365140 (Cell & Bioscience, 2024)
“Also recorded” adds a separate entry of the source. Bridge positions count the residues as written; N and C are the ends. Ends that are not written are not given here.

Columns and labels:
[1] = test system: C57BL/6J mice; assay: Plasma insulin in OGTT; assay type: in vivo, mouse; conditions: 4 mice/group (Fig. 5C)
Method: (§1) Oral glucose tolerance test and insulin detection
(§2) For oral glucose tolerance test (OGTT), mice were fasted overnight and then given either 0.1% DMSO in normal saline (vehicle) or 1 mg/kg AVP and 10 mg/kg Exendin (9–39) (n = 8 per treatment group) via intraperitoneal injection. A glucose bolus was delivered (1.5 g/kg orally) 15 min later. Blood was collected from a tail nick at designated time points, and plasma glucose levels were determined with a glucose meter. To detect insulin level, blood was collected from the retro-orbital plexus of mice 15 min after glucose administration (n = 4 per treatment group) and detected with an ELISA kit for mouse insulin (Crystal Chem, #90080).

[2] = test system: isolated mouse islets; assay: Glucagon secretion from isolated mouse islets; assay type: cell-based, mouse (C57BL/6J)
Method: Hormone secretion from isolated islets
Islets were isolated from anesthetized male C57BL/6J mice (8 wk old). 1 mg/mL Collagenase P (Roche, #11213873001) solution was injected into the pancreas via the bile duct, and the pancreas was digested at 37 °C for 15 min. The mixture was centrifuged at 800 rpm for 3 min to collect the precipitate, which was then washed three times with HBSS (5.4 mM KCl, 0.3 mM Na2HPO4, 0.4 mM KH2PO4, 4.2 mM NaHCO3, 1.3 mM CaCl2, 0.5 mM MgCl2, 0.6 mM MgSO4, 137 mM NaCl, 5.6 mM D-glucose, pH 7.4). Then, the precipitate was re-suspended in HBSS and filtered through a 70 μm filter to obtain islets. The detached islets were cultured overnight in RPMI 1640 supplemented with 10% fetal bovine serum (FBS). The islets were transferred to 48-well plates and starved with KRBB (118.5 mM NaCl, 2.54 mM CaCl2, 1.19 mM KH2PO4, 4.74 mM KCl, 25 mM NaHCO3, 1.19 mM MgSO4, 10 mM HEPES, pH 7.4) containing 0.5% BSA for 60 min. Subsequently, the islets were incubated with 0.1% dimethyl sulfoxide (DMSO) or compounds for a duration of 2 h at 37 °C in 1 mL KRBB containing 16.8 mM or 2.8 mM glucose. Supernatants were collected, and the insulin concentrations were measured using HTRF Insulin kit (Cisbio, #62INSPEC) and an Envision Plate Reader (PerkinElmer).

[3] = test system: C57BL/6J mice; assay: Oral glucose tolerance test (OGTT), blood glucose; assay type: in vivo, mouse; conditions: 15 min before 1.5 g/kg oral glucose, 8 mice/group (Fig. 5A, 5B)
Method: as §1, §2

[4] = test system: co-culture of INS-1E and αTC1-9 cells; assay: Glucagon secretion from co-cultured INS-1E and αTC1-9 cells; assay type: cell-based, rat (INS-1E) and mouse (αTC1-9); conditions: 100 nM, 1 h, 16.8 mM glucose, both 2.5 × 10^4 cells/well (Fig. 3G)
Method: (§3) Cell culture and hormone secretion
(§4) The INS-1E cells were cultured in RPMI 1640 supplemented with 10% FBS, the αTC1-9 cells were cultured in low glucose DMEM supplemented with 10% FBS and the MIN6 cells were cultured in high glucose DMEM supplemented with 10% FBS. Cells were grown in 96-well plates at a density of 5 × 10^4 cells (INS-1E and αTC1-9) or 2 × 10^4 cells (MIN6) per well. After preincubation for 30 min at 37 °C in KRBB, the cells were incubated with either 0.1% DMSO or compounds for 1 h at 37 °C in KRBB containing either 16.8 mM or 2.8 mM glucose. […] For co-culturing of INS-1E and αTC1-9 cells, RPMI 1640 supplemented with 10% FBS was used, both cell densities were 2.5 × 10^4 cells per well in 96-well plates.

[5] = test system: INS-1E cells; assay: Insulin secretion from INS-1E cells; assay type: cell-based, rat; conditions: 100 nM, 1 h, 37 °C, 16.8 mM glucose, 5 × 10^4 cells/well; HTRF; 3 technical replicates (Fig. 1E)
Method: as §3, §4

[6] = test system: co-culture of INS-1E and αTC1-9 cells; assay: Insulin secretion from co-cultured INS-1E and αTC1-9 cells; assay type: cell-based, rat (INS-1E) and mouse (αTC1-9); conditions: 1 h
Method: as §3, §4
Specific sequences of shRNAs (Table 1) targeting GCGR or GLP-1R mRNA were constructed into pLKO.1 puro lentiviral vector (Addgene, #8453). Lentiviral vectors and packaging vectors were transfected into HEK293T cells by FuGENE HD Transfection Reagent (Promega, #E2312) to produce virus particles. INS-1E cells were seeded onto 6-well plates at a density of 5 × 10^5 cells per well and incubated with viruses and 5 μg/mL polybrene for 48 h. Transfected INS-1E cells were collected for real-time qPCR and co-culture experiments.

[7] = test system: MIN6 cells; assay: Insulin secretion from MIN6 cells; assay type: cell-based, mouse; conditions: 100 nM, 1 h, 37 °C, 16.8 mM glucose, 2 × 10^4 cells/well; HTRF; 3 technical replicates (Fig. 1F)
Method: as §3, §4

[8] = test system: mouse and rat pancreas, and isolated mouse islets; conditions: mouse and rat pancreas, and isolated mouse islets; cited from earlier work
From the text: (§5) AVP regulates the hypothalamic-pituitary-adrenal (HPA) axis, stimulating the release of corticotropin-releasing hormone (CRH) through V1bR activation, thereby promoting CRH-induced insulin secretion.

[9] = test system: islet β cells; conditions: cytokine-induced apoptosis; cited from earlier work
From the text: as §5

[10] = test system: isolated mouse islets; assay: Insulin secretion from isolated mouse islets; assay type: cell-based, mouse (C57BL/6J); conditions: for insulin secretion from isolated islets: 2 h
[11] = test system: pancreas of mouse and rat, and the α cell line InR1G9; conditions: cited from earlier work
From the text: However, this regulatory mechanism is impaired in individuals with type 1 diabetes. Compared to wild-type mice, V1b receptor k ...

[12] = test system: αTC1-9 cells; assay: Glucagon secretion from αTC1-9 cells; assay type: cell-based, mouse; conditions: 100 nM, 1 h, 16.8 mM glucose, 5 × 10^4 cells/well; HTRF; 3 technical replicates (Fig. 3F)
Method: as §3, §4

[13] = target: T1, GLP-1R (Homo sapiens, UniProt P43220); assay: cAMP accumulation assay in GLP-1R/HEK293 cells; assay type: cell-based; conditions: glucagon (10 nM)-induced cAMP signal (Fig. 4D)
T1 construct: expressed in transfected cells
T1 sequence (P43220 24-463, species assumed): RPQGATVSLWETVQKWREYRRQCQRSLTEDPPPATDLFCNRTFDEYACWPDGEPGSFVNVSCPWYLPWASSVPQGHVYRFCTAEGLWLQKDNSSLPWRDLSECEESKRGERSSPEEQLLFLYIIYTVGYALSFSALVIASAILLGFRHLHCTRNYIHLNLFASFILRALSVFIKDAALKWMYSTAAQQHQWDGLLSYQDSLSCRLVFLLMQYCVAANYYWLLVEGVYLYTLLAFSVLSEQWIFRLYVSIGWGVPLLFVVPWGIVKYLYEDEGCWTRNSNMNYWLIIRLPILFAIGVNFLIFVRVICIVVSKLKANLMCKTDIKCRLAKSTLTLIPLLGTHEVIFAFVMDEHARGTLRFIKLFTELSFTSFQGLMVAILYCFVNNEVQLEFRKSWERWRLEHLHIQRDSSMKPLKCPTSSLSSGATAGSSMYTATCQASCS
Method: The cAMP assay was performed with GCGR/HEK293 or GLP-1R/HEK293 cell lines. Briefly, cells were harvested and resuspended in DMEM containing 500 μM IBMX at a density of 2 × 10^5 cells/mL. Cells were then plated onto 384-well assay plates at 1000 cells/5 μL/well. DMEM (5 μL) containing different concentrations of antagonists were added to the cells and the incubation lasted for 15 min at 37 °C (this step was omitted in the agonist detection), then another 5 μL DMEM containing different concentrations of agonists were added to the cells and the incubation lasted for 30 min at 37 °C. Intracellular cAMP levels were detected with a LANCE Ultra cAMP kit (PerkinElmer, #TRF0264) and an Envision Plate Reader (PerkinElmer) according to the manufacturer’s instructions.

Arginine vasopressin (CYFQNCPRG-NH2; disulfide 1-6; ends not checked; UniProt P01185 20-28, looked up) [AVP, neuropeptide composed of nine amino acids]
plasma insulin in OGTT ([1]; AVP 1 mg/kg i.p., blood 15 min after glucose administration, ELISA): significantly stimulated the release of insulin | glucagon secretion from isolated islets, glucose dependence ([2]; AVP (100 nM), low (2.8 mM) and high (16.8 mM) glucose (Fig. 3C)): induced glucagon secretion from the isolated islets in low- and high-glucose conditions | glucagon secretion from isolated islets ([2]; various concentrations of AVP, 2 h, 16.8 mM glucose, 10 islets/well, 3 technical replicates (Fig. 3A)): induced dose-dependent secretion of glucagon | blood glucose levels during OGTT ([3]; AVP 1 mg/kg i.p.): significantly lowered blood glucose levels during the OGTT | glucagon secretion from co-culture [4]: induce secretion of glucagon and insulin in high-glucose condition | insulin secretion from INS-1E cells [5]: failed to induce insulin release; also recorded: could not directly induce insulin secretion from INS-1E cells | insulin secretion from co-culture ([6]; 100 nM, 16.8 mM glucose, both 2.5 × 10^4 cells/well (Fig. 3H)): induce secretion of glucagon and insulin in high-glucose condition | AVP-induced insulin secretion from co-culture after Gcgr knockdown ([6]; INS-1E infected with shRNA-Gcgr, AVP (1 nM), 16.8 mM glucose (Fig. 4K)): no significant effect | AVP-induced insulin secretion from co-culture after Glp1r knockdown ([6]; INS-1E infected with shRNA-Glp1r, AVP (1 nM), 16.8 mM glucose (Fig. 4L)): significantly attenuated AVP-induced insulin secretion | insulin secretion from MIN6 cells [7]: failed to induce insulin release | insulin secretion [8]: enhance insulin secretion | protection of islet β cells [9]: confer protection on islet β cells against cytokine-induced apoptosis | insulin secretion from isolated islets ([10]; 100 nM, AVP compared with GLP-1, 3 technical replicates (Fig. 1D)): stimulated similar level of glucose-dependent insulin secretion from freshly isolated islets as GLP-1 | insulin secretion from isolated islets, glucose dependence ([10]; 100 nM, low (2.8 mM) and high (16.8 mM) glucose (Fig. 3D, 3E)): only induced insulin secretion from the islets in high-glucose medium | insulin secretion from isolated islets ([10]; various concentrations of AVP, 37 °C, 10 islets/well, 16.8 mM glucose KRBB, HTRF, mean ± SEM, 3 technical replicates (Fig. 1A)): induced insulin secretion in a dose-dependent manner in high glucose condition | glucagon secretion [11]: stimulate glucagon secretion | glucagon secretion from αTC1-9 cells [12]: could induce glucagon release from αTC1-9 cells

Exendin (9–39)
effect on AVP-stimulated plasma insulin in OGTT ([1]; co-injection of 10 mg/kg with AVP 1 mg/kg i.p., 15 min after glucose administration): completely blocked | effect on AVP-induced glucagon secretion from islets ([2]; AVP (1 nM), various concentrations of antagonist, 16.8 mM glucose, 2 h (Fig. 4G, 4H)): did not affect AVP-induced glucagon secretion from the islets | effect on AVP-lowered blood glucose in OGTT ([3]; co-injection of 10 mg/kg with AVP 1 mg/kg, i.p.): almost abolished the effect of AVP | effect on AVP-stimulated insulin secretion from isolated islets ([10]; AVP (1 nM), antagonist at 0.1 μM, 16.8 mM glucose, 2 h (Fig. 4F)): almost totally abolished AVP-stimulated insulin secretion from islets | antagonistic effect on GLP-1R [13]: potent and dose-dependent antagonistic effect
